{"source": "patent US7989018B2", "about": "“Fluid treatment of a polymeric coating on an implantable medical device” (Advanced Cardiovascular Systems, Inc., priority 2001, dated 2011)", "key": {"[1]": {"assay": "Drug release from stent coatings, Vankel Bio-Dis release rate tester, HPLC", "format": "physicochemical", "conditions": "fluid-treated coating, Example 3", "method": "The drug-coated stents were placed on stent holders of a Vankel Bio-Dis release rate tester (Vankel, Inc., Cary, N.C.). 3 stents from each test group were dipped into an artificial medium for about 1 hour to extract the 40-O-(2-hydroxy)ethyl-rapamycin from the stent coatings. The artificial medium included phosphate buffer saline solution (10 mM, pH 7.4) and 1% TRITON X-100 Sigma Corporation) which stabilizes the 40-O-(2-hydroxy)ethyl-rapamycin in the testing solution. Each stent was tested in a separate testing solution to prevent cross-contamination. After extraction, each of the solutions was separately analyzed for the amount of drug released from the stent coatings by high pressure liquid chromatography (HPLC). The HPLC system consisted of a Waters 2690 system. After the drug solutions were analyzed by HPLC, the results were quantified by comparing the release rate results with a reference standard.\nEach of the stents was then dipped in fresh extraction solutions for another 6 hours (7 hours total). The solutions were analyzed by HPLC as described above. […] The solutions were again analyzed by HPLC as described above.\nThe drug release profile could then be generated by plotting cumulative drug released in the medium vs. time. The percentage of drug released at a specific time was determined by comparing the cumulative drug released with the total content data. […]"}, "[2]": {"assay": "Release of 40-O-(2-hydroxy)ethyl-rapamycin from a standard polymeric coating in release media", "format": "physicochemical", "conditions": "in about 24 hours, certain release media"}}}
{"smiles": "CO[C@H]1C[C@@H]2CC[C@@H](C)[C@@](O)(O2)C(=O)C(=O)N2CCCC[C@H]2C(=O)O[C@H]([C@H](C)C[C@@H]2CC[C@@H](OCCO)[C@H](OC)C2)CC(=O)[C@H](C)/C=C(\\C)[C@@H](O)[C@@H](OC)C(=O)[C@H](C)C[C@H](C)/C=C/C=C/C=C/1C", "note": "[40-O-(2-hydroxy)ethyl-rapamycin]", "values": [{"measurement": "decrease of release rate as compared to a control group", "setting": "[1]", "value": "about 50%"}, {"measurement": "release rate from a standard polymeric coating", "setting": "[2]", "value": "greater than 50%"}]}
